Experimental data as given in patent US20120258127A1 (priority 2010, published 2012).
Like-named read-outs stand apart in the source and are kept apart here.

Experiments:
[1] = test system: CSFV reference strain Alfort 187; assay type: cell-based, porcine
CSFV isolate = test system: CSFV isolate; parameters: species or system pigs; conditions: pig, in vivo
[2] = test system: PBMC from vaccinated and challenged pigs; assay type: cell-based

N[C@H](Cc1c[nH]c2ccccc12)C(=O)O [D-tryptophan]
Effect on IFN-γ mediated reduction in the proportion of CSFV infected cells [1]: unaffected

N[C@@H](Cc1c[nH]c2ccccc12)C(=O)O [L-tryptophan]
Effect on IFN-γ mediated reduction in the proportion of CSFV infected cells [1]: unaffected

IFN-α
Proportion of infected cells [1]: eliminated the infection

L-N-6-(1-iminoethyl)lysine hydrochloride
Effect on IFN-γ mediated reduction in the proportion of CSFV infected cells ([1]; after 48 hours): unaffected

LRAAMVEYSYIFLDEY [SEQ ID NO:2]
Occurrence of symptoms of CSFV infection compared with control group (CSFV isolate): reduced occurrence of symptoms of CSFV infection | Recognition of individual antigenic peptides (IFN-γ) [2]: recognition

NIMARTDHPEPIQLAY [SEQ ID NO:3]
Occurrence of symptoms of CSFV infection compared with control group (CSFV isolate): reduced occurrence of symptoms of CSFV infection | Recognition of individual antigenic peptides (IFN-γ) [2]: recognition

NKYFEPRDSYFQQYML [SEQ ID NO:1]
Occurrence of symptoms of CSFV infection compared with control group (CSFV isolate): reduced occurrence of symptoms of CSFV infection
